What was measured:
[1] = Cytotoxicity against human A549 cells; format: cell-based
[2] = Cytotoxicity against human SR cells; format: cell-based
[3] = tested on: CCRF-CEM; test: Cell growth in human CCRF-CEM cells in presence of 10 uM hypoxanthine and 10 uM deoxycytidine relative to control; format: functional
[4] = tested on: CCRF-CEM; test: Cell growth in human CCRF-CEM cells in presence of thymidine and hypoxanthine and 10 uM deoxycytidine relative to control; format: functional
[5] = biological target: T1, Folylpolyglutamate synthase, mitochondrial (Homo sapiens) (UniProt Q05932); test: Ratio of Vmax to Km of human recombinant cytosolic FPGS
T1 sequence (whole entry): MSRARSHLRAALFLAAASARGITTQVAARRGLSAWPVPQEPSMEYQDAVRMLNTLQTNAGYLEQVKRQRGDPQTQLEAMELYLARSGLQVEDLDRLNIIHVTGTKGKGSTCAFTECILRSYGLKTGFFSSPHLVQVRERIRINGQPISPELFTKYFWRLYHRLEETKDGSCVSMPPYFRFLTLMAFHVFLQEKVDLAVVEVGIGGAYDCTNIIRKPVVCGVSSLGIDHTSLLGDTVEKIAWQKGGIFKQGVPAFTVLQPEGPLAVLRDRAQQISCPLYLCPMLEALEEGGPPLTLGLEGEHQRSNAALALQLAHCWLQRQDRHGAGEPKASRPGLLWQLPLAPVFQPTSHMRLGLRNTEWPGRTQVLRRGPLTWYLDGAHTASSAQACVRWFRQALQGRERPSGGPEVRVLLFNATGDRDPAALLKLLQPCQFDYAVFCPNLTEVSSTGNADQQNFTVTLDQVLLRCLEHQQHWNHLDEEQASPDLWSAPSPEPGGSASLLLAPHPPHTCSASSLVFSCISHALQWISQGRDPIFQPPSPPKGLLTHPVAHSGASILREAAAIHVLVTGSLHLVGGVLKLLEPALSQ

[6] = tested on: CCRF-CEM; test: Cell growth in human CCRF-CEM cells in presence of 5 uM thymidine and 10 uM deoxycytidine relative to control; format: functional
[7] = Cytotoxicity against human HCT116 cells; format: cell-based; settings: HCT-116 cells
[8] = Cytotoxicity against human 786-0 cells; format: cell-based
[9] = biological target: Dihydrofolate reductase (Lactobacillus casei, UniProt P00381)
Dihydrofolate reductase (Lactobacillus casei, UniProt P00381), sequence (P00381 whole entry): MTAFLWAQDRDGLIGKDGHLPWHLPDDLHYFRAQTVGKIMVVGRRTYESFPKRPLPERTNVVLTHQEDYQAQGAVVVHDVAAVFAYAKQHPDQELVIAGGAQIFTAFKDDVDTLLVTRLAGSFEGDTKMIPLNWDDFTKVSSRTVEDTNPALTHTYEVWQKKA
Description: Inhibition of Lactobacillus casei DHFR

[10] = biological target: Thymidylate synthase (Homo sapiens, UniProt P04818); test: Inhibition of human recombinant thymidylate synthase
Thymidylate synthase (Homo sapiens, UniProt P04818), sequence (P04818 whole entry): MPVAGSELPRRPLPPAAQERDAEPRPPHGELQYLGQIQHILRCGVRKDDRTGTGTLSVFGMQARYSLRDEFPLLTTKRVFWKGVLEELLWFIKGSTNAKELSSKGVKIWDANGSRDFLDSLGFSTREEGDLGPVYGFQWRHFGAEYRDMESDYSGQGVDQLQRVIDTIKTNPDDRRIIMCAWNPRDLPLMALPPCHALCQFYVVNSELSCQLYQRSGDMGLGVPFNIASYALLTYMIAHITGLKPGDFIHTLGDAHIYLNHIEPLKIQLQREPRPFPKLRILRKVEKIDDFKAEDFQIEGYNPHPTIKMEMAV

[11] = biological target: T2, Dihydrofolate reductase (Escherichia coli, UniProt P0ABQ4)
T2 sequence (P0ABQ4 whole entry): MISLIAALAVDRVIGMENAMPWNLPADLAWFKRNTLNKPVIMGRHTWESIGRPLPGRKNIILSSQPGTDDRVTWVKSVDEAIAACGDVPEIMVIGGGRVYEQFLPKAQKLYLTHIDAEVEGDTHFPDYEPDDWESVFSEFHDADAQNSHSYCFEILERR
Description: Inhibition of Escherichia coli DHFR

[12] = Cytotoxicity against human MCF7 cells; format: cell-based
[13] = biological target: Thymidylate synthase (Escherichia coli, UniProt C3SWJ7); test: Inhibition of Escherichia coli thymidylate synthase
Thymidylate synthase (Escherichia coli, UniProt C3SWJ7), sequence (C3SWJ7 whole entry): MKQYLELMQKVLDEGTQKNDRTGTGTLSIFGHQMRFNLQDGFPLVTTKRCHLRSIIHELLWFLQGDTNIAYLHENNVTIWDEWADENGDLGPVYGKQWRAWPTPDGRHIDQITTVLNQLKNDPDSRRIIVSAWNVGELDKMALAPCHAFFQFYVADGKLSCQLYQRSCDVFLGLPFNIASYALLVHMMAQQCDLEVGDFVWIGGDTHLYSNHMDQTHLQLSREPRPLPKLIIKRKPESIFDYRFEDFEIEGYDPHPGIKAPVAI

[14] = Cytotoxicity against human K562 cells; format: cell-based
[15] = tested on: CCRF-CEM; test: Growth inhibition of human CCRF-CEM cells at 1500 nM; format: functional
[16] = tested on: CCRF-CEM; test: Cell growth in human CCRF-CEM cells relative to control; format: functional
[17] = Cytotoxicity against human HOP92 cells; format: cell-based; settings: HOP-92 cells
[18] = Cytotoxicity against human MDA-MB-435 cells; format: cell-based
[19] = Cytotoxicity against human NCI-H460 cells; format: cell-based
[20] = tested on: SF-268; test: Cytotoxicity against SF268 cells; format: functional; settings: Homo sapiens
[21] = Cytotoxicity against human HL60 cells; format: cell-based; settings: HL-60 cells
[22] = biological target: T3, Dihydrofolate reductase (Homo sapiens, UniProt P00374)
T3 sequence (P00374 whole entry): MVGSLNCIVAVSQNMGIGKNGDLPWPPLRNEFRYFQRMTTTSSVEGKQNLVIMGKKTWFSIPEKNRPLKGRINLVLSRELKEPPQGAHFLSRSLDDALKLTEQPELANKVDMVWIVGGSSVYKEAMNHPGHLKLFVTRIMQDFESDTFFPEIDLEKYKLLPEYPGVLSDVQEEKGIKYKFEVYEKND
Description: Inhibition of human recombinant DHFR

[23] = biological target: T4, Thymidylate synthase (Lactobacillus casei, UniProt P00469); test: Inhibition of Lactobacillus casei thymidylate synthase; design: species or system Lacticaseibacillus casei
T4 sequence (P00469 whole entry): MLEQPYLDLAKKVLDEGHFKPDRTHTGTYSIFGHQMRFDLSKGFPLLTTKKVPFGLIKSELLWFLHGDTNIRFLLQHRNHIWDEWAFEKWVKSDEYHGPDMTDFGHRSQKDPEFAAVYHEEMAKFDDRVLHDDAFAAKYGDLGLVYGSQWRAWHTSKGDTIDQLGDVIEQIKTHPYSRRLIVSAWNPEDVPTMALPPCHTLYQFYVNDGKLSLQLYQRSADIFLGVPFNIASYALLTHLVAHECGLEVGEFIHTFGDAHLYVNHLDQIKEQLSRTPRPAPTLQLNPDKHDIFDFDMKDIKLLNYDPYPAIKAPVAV

[24] = Cytotoxicity against human SK-MEL-28 cells; format: cell-based
[25] = Cytotoxicity against human SW620 cells; format: cell-based; settings: SW-620 cells
[26] = Cytotoxicity against human PC3 cells; format: cell-based; settings: PC-3 cells
[27] = Cytotoxicity against MDAN cells; format: cell-based, MDA-N; settings: human
[28] = Cytotoxicity against human CCRF-CEM cells; format: cell-based
[29] = tested on: CCRF-CEM; test: Cell growth in human CCRF-CEM cells at 30 nM in presence of thymidine, hypoxanthine and 10 uM deoxycytidine; format: functional
[30] = tested on: CCRF-CEM; test: Cell growth in human CCRF-CEM cells at 30 nM in presence of 10 uM hypoxanthine and 10 uM deoxycytidine; format: functional
[31] = tested on: CCRF-CEM; test: Cell growth in human CCRF-CEM cells at 30 nM in presence of 5 uM thymidine and 10 uM deoxycytidine relative to control; format: functional
[32] = tested on: CCRF-CEM; test: Growth inhibition in human CCRF-CEM cells assessed as cell growth relative to control; format: functional; design: scale not given: the % may be the effect or the level left
[33] = substrate: Nc1nc(N)c2c(CCc3ccc(C(=O)N[C@@H](CCC(=O)O)C(=O)O)cc3)coc2n1; test: (§1) Activity of human recombinant cytosolic FPGS relative to aminopterin
[34] = substrate: Nc1nc(N)c2c(CCCc3ccc(C(=O)N[C@@H](CCC(=O)O)C(=O)O)cc3)coc2n1; test: as §1
[35] = substrate: Nc1nc(N)c2c(CCCc3ccc(C(=O)N[C@@H](CCC(=O)O)C(=O)O)cc3)coc2n1; test: Activity of human recombinant cytosolic FPGS

Work on `Nc1nc(N)c2c(CCCc3ccc(C(=O)N[C@@H](CCC(=O)O)C(=O)O)cc3)coc2n1` yielded a GI50 [1] of 16.6 nM, a GI50 [2] of 10 nM and an Activity [3] of 20%. The Activity [4] was 73.5%, the Ratio [5] was 1.4 and the Activity [6] was 25.5%. It also gave a GI50 [7] of 10 nM, a GI50 [8] of 123 nM and an IC50 [9] of 11000 nM. The IC50 [10] was over 18000 nM, the IC50 [11] was 7000 nM and the GI50 [12] was 174 nM. For the same molecule, the IC50 [13] was over 180000 nM, the GI50 [14] was 10 nM and the inhibition at 1.5 µM [15] was 80%. The Activity [16] was 21%, the GI50 [17] was 95900 nM and the GI50 [18] was 21.4 nM. The GI50 [19] was 10 nM, the GI50 [20] was 648 nM and the GI50 [21] was 10 nM. For the same molecule, the IC50 [22] was 9000 nM, the IC50 [23] was over 100000 nM and the GI50 [24] was 100000 nM. It also gave a GI50 [25] of 10 nM, a GI50 [26] of 12.5 nM and a GI50 [27] of 22.3 nM. It also gave a GI50 [28] of 42.9 nM.

With `Nc1nc(N)c2nc(CNc3ccc(C(=O)N[C@@H](CCC(=O)O)C(=O)O)cc3)cnc2n1` the Ratio [5] was 0.22.

`Nc1nc(N)c2c(CCc3ccc(C(=O)N[C@@H](CCC(=O)O)C(=O)O)cc3)coc2n1` showed a Ratio [5] of 0.07.

For `CN(Cc1cnc2nc(N)nc(N)c2n1)c1ccc(C(=O)N[C@@H](CCC(=O)O)C(=O)O)cc1` [METHOTREXATE], the Activity [3] was 13.5%, the Activity [4] was 73.5% and the Activity [6] was 12.5%. It also gave an Activity [29] of 74.5%, an Activity [30] of 15.5% and an Activity [31] of 16%.

`Nc1nc2[nH]cc(CCc3ccc(C(=O)N[C@@H](CCC(=O)O)C(=O)O)cc3)c2c(=O)[nH]1` [PEMETREXED] showed an IC50 [10] of 19000 nM and an IC50 [23] of 38000 nM.

`Nc1ccn([C@H]2C[C@H](O)[C@@H](CO)O2)c(=O)n1` [DOXECITINE] gave an Activity [32] of 97%.

B1: Folylpolyglutamate synthase, mitochondrial (Homo sapiens), Q05932 (protein)
chain: T1 sequence (whole entry)
Work on B1 yielded a Vmax [33] of 0.65, a Vmax [34] of 0.42 and a Km [35] of 0.3 µM.

— ChEMBL document CHEMBL1149313, “Synthesis of classical, three-carbon-bridged 5-substituted furo[2,3-d]pyrimidine and 6-substituted pyrrolo[2,3-d]pyrimidine analogues as antifolates” (J Med Chem, 2004)
